In PubChem BioAssay AID262 (DTP/NCI, 2004):
Values joined by “and” are separate entries in the source; they are usually repeats but may differ in a detail not shown here. Equal entries are not always repeated. Starred links: 1 amine or outer side, 2 acyl side, 3 side chain; linkers in the order of their positions; H or OH if unused. Positions of bridges follow the written chain, without caps; N, C: chain ends. Non-standard residues stand in square brackets, D forms with d. Residues, ends and D or L forms follow the SMILES beside them. Chains are numbered I, II in the order given. Actinocin(9to1) = Cc1c2oc3c(C)ccc(C(=O)[*:1])c3nc-2c(C(=O)[*:2])c(N)c1=O; aThr = C[C@H](O)[C@H](N)C(=O)O; NMeV = CN[C@H](C(=O)O)C(C)C; Sar = CNCC(=O)O

System: LX-1 lung xenograft sc, nude mice, tumor weight
Experiment: NCI In Vivo Anticancer Drug Screen. Data for tumor model Human Lung LX-1 Xenograft (subcutaneous) in NU/NU Swiss (nude) mice
Conditions: endpoint: optimum tumor weight change, higher = larger tumour
Method: The antitumor activity of compounds was measured in mice bearing transplantable tumors. Survival or tumor size were measured and the results are expressed as the measurement made in the treated group (T) divided by the measurement made in the vehicle treated control group (C). The tumor model used in this assay is Human Lung LX-1 Xenograft (subcutaneous) in NU/NU Swiss (nude) mice

[1] = dose: 5.0 mg/kg/injection, schedule: Q04DX003 (ip), vehicle: Klucel (hydroxypropylcellulose) (HPC)
[2] = dose: 50.0 mg/kg/injection, schedule: Q04DX003 (ip), vehicle: suspension in saline

With `N/C(=N\O)c1cn(C2OC(CO)C(O)C2O)c2ncnc(N)c12` (stereo not drawn) the T/C [1] was 70 % of control, the T/C (dose: 10.0 mg/kg/injection, schedule: Q04DX003 (ip), vehicle: Klucel (hydroxypropylcellulose) (HPC)) was 68 % of control and the T/C (dose: 20.0 mg/kg/injection, schedule: Q04DX003 (ip), vehicle: Klucel (hydroxypropylcellulose) (HPC)) was 62 % of control.

For `Cc1c2oc3c(C)ccc(C(=O)N[C@@H]4C(=O)N[C@H](C(C)C)C(=O)N5CCC[C@H]5C(=O)N(C)CC(=O)N(C)[C@@H](C(C)C)C(=O)O[C@H]4C)c3nc-2c(C(=O)N[C@@H]2C(=O)N[C@H](C(C)C)C(=O)N3CCC[C@H]3C(=O)N(C)CC(=O)N(C)[C@@H](C(C)C)C(=O)O[C@H]2C)c(N)c1=O` (I: [aThr][dV]P[Sar][NMeV] / II: [aThr][dV]P[Sar][NMeV]; ester I:1-I:C, II:1-II:C; linker I:N-II:N via Actinocin(9to1)), the T/C (dose: 150.0 micrograms/kg/injection, schedule: Q04DX003 (ip), vehicle: saline) was 122 % of control and the T/C (dose: 300.0 micrograms/kg/injection, schedule: Q04DX003 (ip), vehicle: saline) was 106 % of control.

With `O=c1[nH]c2c(ccc3cnccc32)c2c1CCC2` the T/C (dose: 12.5 mg/kg/injection, schedule: Q04DX003 (ip), vehicle: suspension in saline) was 35 % of control, the T/C (dose: 25.0 mg/kg/injection, schedule: Q04DX003 (ip), vehicle: suspension in saline) was 70 % of control and the T/C [2] was 61 % of control.

In the case of `CC(CN1CC(=O)NC(=O)C1)N1CC(=O)NC(=O)C1` (stereo not drawn), the T/C [2] is reported as 70 % of control and the T/C (dose: 100.0 mg/kg/injection, schedule: Q04DX003 (ip), vehicle: suspension in saline) is reported as 53 % of control.

For `COc1ccc(C(N)=O)cc1N=NN(C)C`, the T/C (dose: 18.75 mg/kg/injection, schedule: Q04DX003 (ip), vehicle: Klucel (hydroxypropylcellulose) (HPC)) was 60 % of control.

`CN(C)N=Nc1cccc(C(N)=O)c1` was tested, and the T/C (dose: 12.5 mg/kg/injection, schedule: Q04DX003 (ip), vehicle: Klucel (hydroxypropylcellulose) (HPC)) was 98 % of control and the T/C (dose: 25.0 mg/kg/injection, schedule: Q04DX003 (ip), vehicle: Klucel (hydroxypropylcellulose) (HPC)) was 36 % of control.

With `NC(Cc1ccc(N(CCCl)CCCl)cc1)C(=O)O` (stereo not drawn) the T/C [1] was 66 % of control.

With `CN(CO)c1nc(N(C)CO)nc(N(C)CO)n1` the T/C (dose: 25.0 mg/kg/injection, schedule: Q01DX005 (ip), vehicle: saline) was 79 % of control and 226 % of control, the T/C (dose: 25.0 mg/kg/injection, schedule: Q04DX005 (ip), vehicle: saline) was 114 % of control and the T/C (dose: 50.0 mg/kg/injection, schedule: Q01DX005 (ip), vehicle: saline) was 59 % of control and 73 % of control. For the same compound, the T/C (dose: 50.0 mg/kg/injection, schedule: Q04DX005 (ip), vehicle: saline) was 79 % of control and 84 % of control, the T/C (dose: 50.0 mg/kg/injection, schedule: Q07DX005 (ip), vehicle: saline) was 29 % of control and the T/C (dose: 100.0 mg/kg/injection, schedule: Q01DX005 (ip), vehicle: saline) was 102 % of control and 122 % of control. The T/C (dose: 100.0 mg/kg/injection, schedule: Q04DX005 (ip), vehicle: saline) was 93 % of control, the T/C (dose: 100.0 mg/kg/injection, schedule: Q07DX005 (ip), vehicle: saline) was 26 % of control and 33 % of control and the T/C (dose: 200.0 mg/kg/injection, schedule: Q01DX005 (ip), vehicle: saline) was -5 % of control. For the same compound, the T/C (dose: 200.0 mg/kg/injection, schedule: Q07DX005 (ip), vehicle: saline) was 49 % of control and 55 % of control.

`N[C@@H](Cc1ccc(N(CCCl)CCCl)cc1)C(=O)O` was tested, and the T/C (dose: 4.0 mg/kg/injection, schedule: Q04DX003 (ip), vehicle: suspension in saline) was 81 % of control and 87 % of control and the T/C (dose: 8.0 mg/kg/injection, schedule: Q04DX003 (ip), vehicle: suspension in saline) was 56 % of control.

With `CCC1=C[C@H]2CN(CCc3c([nH]c4ccccc34)[C@@](C(=O)OC)(c3cc4c(cc3OC)N(C)[C@H]3[C@@](O)(C(=O)NC)[C@H](OC(C)=O)[C@]5(CC)C=CCN6CC[C@]43[C@@H]65)C2)C1` the T/C (dose: 0.25 mg/kg/injection, schedule: Q04DX003 (ip), vehicle: water) was 69 % of control, the T/C (dose: 0.5 mg/kg/injection, schedule: Q04DX003 (ip), vehicle: water) was 40 % of control and the T/C (dose: 1.0 mg/kg/injection, schedule: Q04DX003 (ip), vehicle: water) was 98 % of control.

In the case of `COC(OC(CO)C(O)S(=O)(=O)O)C(O)S(=O)(=O)O` (stereo not drawn), the T/C (dose: 200.0 mg/kg/injection, schedule: Q04DX003 (ip), vehicle: saline) is reported as 45 % of control, the T/C (dose: 200.0 mg/kg/injection, schedule: Q04DX003 (ip), vehicle: suspension in saline) is reported as 89 % of control and the T/C (dose: 400.0 mg/kg/injection, schedule: Q04DX003 (ip), vehicle: suspension in saline) is reported as 82 % of control. The T/C (dose: 800.0 mg/kg/injection, schedule: Q04DX003 (ip), vehicle: suspension in saline) was 41 % of control.
